Reference: US12600740B2, “Fluorinated N-acetyl glucosamine analogs and xylose derivatives” (UTI Limited Partnership, priority 2018, dated 2026)
Entries after “also recorded” stand apart in the source; their conditions may differ.

Key:
[1] = tested on: splenocytes; experiment: Splenocyte thymidine proliferation assay (anti-CD3/anti-CD28); format: cell-based, mouse; conditions: 25 μM, 48 hours
Protocol: It was assessed whether the glucosamine analogs have immunomodulatory properties on splenocytes isolated in culture. T cells within the splenocyte pool were polyclonally activated with anti-CD3 and anti-CD28 antibodies in the presence of compounds for 48 hours, and proliferation was determined by the uptake of tritiated thymidine and expressed as counts per minute. The relative change in proliferation of treated versus control splenocytes was taken in order to rank the compounds across multiple independent experiments (FIG. 8a).
The spleens were isolated from 8-10-week-old female C57BL/6 mice and homogenized. The cells were isolated by Ficoll gradient and spun for 30 min at 1,800 r.p.m. The cell suspension was removed and the cells were washed once with PBS. The cell pellet was subsequently re-suspended in Roswell Park Memorial Institute media containing 10% fetal bovine serum, 1% penicillin/streptomycin, 1% sodium pyruvate and 1% L-glutamine. Trypan blue exclusion was used to count live cells, and the cells were plated at 2.5×10^5 cells per well in a round-bottom 96-well plate and activated with 1,000 ng/ml plate-bound anti-CD3 and 1,000 ng/ml anti-CD28 suspended in media to preferentially activate T lymphocytes. Compounds were added at final concentrations of 25 μM. The cells were kept at 37° C. and 5% CO2 for 30 h, after which 10 μl/well (1 μCi per well) of 3H-thymidine was added for 18 h. The cells containing thymidine were harvested onto filter mats using a cell harvester and mats were allowed to dry for 24 h. The results were read by liquid scintillation counts.

[2] = tested on: CSPG production by astrocytes; experiment: Western blot of astrocyte conditioned medium, MAB2030 (chondroitin sulfate GAG stubs); format: cell-based, mouse; conditions: astrocyte conditioned media, 50 μM, 48 hours
Description: Astrocytes are major producers of CSPGs following injury in the CNS [Jones, L. L., Margolis, R. U. & Tuszynski, M. H. The chondroitin sulfate proteoglycans neurocan, brevican, phosphacan, and versican are differentially regulated following spinal cord injury. Experimental Neurology 182, 399-411 (2003); Tang, X., Davies, J. E. & Davies, S. J. Changes in distribution, cell associations, and protein expression levels of NG2, neurocan, phosphacan, brevican, versican V2, and tenascin-C during acute to chronic maturation of spinal cord scar tissue. […] The Journal of neuroscience: the official journal of the Society for Neuroscience 20, 2427-2438 (2000); McKeon, R. J., Jurynec, M. J. & Buck, C. R. The chondroitin sulfate proteoglycans neurocan and phosphacan are expressed by reactive astrocytes in the chronic CNS glial scar. The Journal of neuroscience: the official journal of the Society for Neuroscience 19, 10778-10788 (1999); Haas, C. A., Rauch, U., Thon, N., Merten, T. & Deller, T. Entorhinal cortex lesion in adult rats induces the expression of the neuronal chondroitin sulfate proteoglycan neurocan in reactive astrocytes. The Journal of neuroscience: the official journal of the Society for Neuroscience 19, 9953-9963 (1999)] and they may help drive progression of disability in a model of progressive MS [Mayo, L. et al. Regulation of astrocyte activation by glycolipids drives chronic CNS inflammation. Nature medicine 20, 1147-1156 (2014)]. Therefore astrocytes were used as model cells to determine the ability of the sugar analogs to reduce synthesis of CSPGs. Since CSPGs are exported out of cells, the conditioned media from analog-treated astrocytes were probed by Western blots (FIG. 4). We used antibodies to both the stubs of chondroitin sulfate GAGs attached to the core protein (MAB2030) and to intact 4-sulfated chondroitin sulfate sidechains (2H6) (FIG. 4a). Particularly, we used the 2H6 antibody to label intact 4-sulfated chondroitin sulfate sidechains, and the MAB2030 antibody to detect the stubs of chondroitin sulfate GAGs attached to the core protein. […] 1998, 160 (8), 3812-3819. Poole Poole C. A.; Glant T. T.; Schofield J. R.; Chondrons from articular cartilage. (IV). Immunolocalization of proteoglycan epitopes in isolated canine tibial chondrons. J. Histochem. Cytochem. 1991, 39 (9), 1175-1187].
Astrocytes were plated in uncoated 6-well plates (3 replicate wells per treatment) at 1×10^6 cells/well in mixed glial media, and incubated at 5% CO2 and 37° C. Astrocytes were treated with compounds at 50 μM in AIM-V media for 48 hours. Media was pooled from 3 replicate wells in 15 ml 100K cutoff centricon tubes (EMD Millipore, #UFC905008), which were spun on an ultracentrifuge at 5000× g for 2 cycles of 10 minutes each. When harvested, the cell lysate was kept on ice for 5 minutes with 250 μL of RIPA buffer (ThermoFisher Scientific #89900) containing proteinase inhibitor, and then collected and centrifuged at 14000 g for 5 minutes. Total protein was quantified using a Bradford assay. Conditioned media that were to be probed for chondroitin 4-sulfate GAGs (Millipore, #MAB2030) were first digested with 0.2 U/ml chondroitinase ABC for overnight at 37° C. to remove chondroitin sulfate sidechains. Blots that were to be probed with CSA (2H6, Cosmo) or CS56 (Abcam #ab11570) were not exposed to chondroitinase ABC. Samples were heat denatured with NuPAGE® LDS Sample buffer at 70° C. for 10 minutes and then loaded into 3-8% tris-acetate pre-cast gels (ThermoFisher, #EA0478BOX). The gels were electrophoresed at a constant 150 V for 90 minutes and transferred to a […] polyvinylidene fluoride membrane at a constant 250 mA for 60 minutes. The membranes were blocked for one hour with 10% skim milk in Tris-buffered saline (TBS; 0.9% NaCl, 10 mM Tris-HCl, pH 7.5) containing 0.5% Tween 20 (TBS-T). Primary antibodies were added in 3% skim milk and incubated overnight at 4° C. […]

[3] = tested on: TNFα; experiment: TNFα ELISA of LPS-stimulated bone marrow-derived macrophages; format: cell-based, mouse; conditions: BMDMs, 50 μM, LPS 100 ng/ml, 24 hours
Protocol: Multiple Sclerosis: Mechanisms and Immunotherapy. Neuron 97, 742-768 (2018)]. It was tested whether the sugar analogs could affect the activity of macrophages, using bone marrow-derived macrophages (BMDMs) stimulated with lipopolysaccharide (LPS, 100 ng/ml). The sugar analogs were added at 50 μM prior to LPS, and the conditioned medium was collected after 24 hours and assayed for levels of the secreted cytokine TNFα. […] Testing Toxicity of Sugar Analogs
Femurs were carefully removed from euthanized female C57BI/6 mice, and marrow was flushed into a culture plate with cold complete bone marrow growth medium (DMEM, 10% fetal bovine serum, and the supplements 1% penicillin/streptomycin, 1% glutamine, 1% non-essential amino acids, and 10% supernatant from L929 cell-line enriched in macrophage-colony stimulating factor). Cells were spun at 1100 rpm for 10 minutes, resuspended in fresh growth medium and plated at 10×10^6 cells/ml in a 10 cm culture dish. Cells were grown in DMEM with supplements and L929 supernatant for 5 days, then half the medium was replaced with fresh growth medium. On day 7 growth medium was replaced with DMEM with 10% FBS and supplements. Cells were used on day 8, and experiments were conducted in DMEM with 1% FBS and supplements unless otherwise specified.
BMDM were plated at 25,000 cells in 96-well plates in DMEM+L929 media. After 24 hours media was changed to DMEM+1% FBS. One hour later, cells were treated with […] compounds or PBS. After 1 hour LPS (final concentration 100 ng/ml) was added. Following 24 hours, conditioned media was harvested for TNFα ELISA (Thermo Scientific), which was performed according to manufacturer's instructions.

[4] = tested on: splenocytes; experiment: Propidium iodide DNA cell cycle flow cytometry of splenocytes; format: cell-based, mouse; conditions: activated splenocytes
Description: Cell-cycle flow cytometry with propidium iodide was used to corroborate the above results, and ensure the reduction in proliferation was not due to cell death. […] To further investigate whether the reduction of proliferation was due to cell death, Annexin V and propidium iodide staining were used to differentiate necrotic cells (propidium iodide+), apoptotic cells (annexin V+), dead cells (propidium iodide+ and annexin V+), and live cells (propidium iodide-annexin V−).
Cell cycle staining with propidium iodide (PI) and analysis by flow cytometry gives percentage of cells in apoptosis, G1, G2, and synthesis, and apoptosis. Following a membrane permeabilization, PI chelates to DNA and level of staining specifies the stage of the cell cycle (e.g., G2 phase will have twice the DNA and thus twice the PI signal as G1 phase, apoptotic cells contain less DNA than healthy cells and are identified by low PI staining). 1×10^6 splenocytes were used per sample, with four replicates per condition. Cells were collected into a tube with PBS and centrifuged (200 r.p.m. for 5 minutes). […] Suspension was transferred to a FACs tube and analyzed. Annexin V/Propidium iodide staining was detected using the Annexin V FITC apoptosis detection kit (BD Biosciences, #556547), which was performed according to manufacturer's instructions.

[5] = tested on: mice demyelinated with lysolecithin; experiment: Lysolecithin demyelination of the mouse spinal cord; format: in vivo; conditions: 100 mg/kg IP twice a day, Day 3 to Day 6; Day 7 post-demyelination; listed as difluorosamine
Protocol: On Day 0, 7 mice were injected with 0.5 μL of 1.0% lysolecithin in the ventral funiculus of the spinal cord. Thereafter, 4 mice were treated from Day 3 to Day 6 with saline vehicle IP twice a day. 3 mice were treated from Day 3 to Day 6 with difluorosamine 100 mg/kg IP twice a day. On Day 7, mice were transcardially perfused with cold PBS and 4% PFA. Thoracic spinal cords were dissected, fixed and analyzed. Sections adjacent to lesion epicenters were triple-stained for Olig2 (cells of the oligodendrocyte lineage), PDGFRα (oligodendrocyte precursor cell) and MBP (myelin). The number of Olig2+, Olig2+ PDGFRα+ (oligodendrocyte precursor cell), and Olig2+ PDGFRα− (presumed mature oligodendrocytes) cells per field of view were quantified blindly. Statistics were conducted using 1-tailed t-tests.

`CCC(=O)OCC1OC(O)C(NC(C)=O)C(OC(=O)CC)[C@@H]1F` (mixture of isomers) [Compound 11, 2-Acetamido-2,4-dideoxy-4-fluoro-3,6-di-O-propanoyl-α/β-D-glucopyranose] was tested, and the splenocyte proliferation [1] was “reduced splenocyte proliferation”, the “effect on CSPG production by astrocytes” value [2] was “did not lower CSPG production in astrocytes” and the “TNFα production by LPS-stimulated macrophages” value [3] was “enhanced TNFα levels”.
With `CC(=O)NC1C(O)OC(COC(C)=O)[C@@H](F)C1OC(C)=O` (stereo in doubt) [Compound 10] the “percentage of cells in cell cycle phases” value [4] was “reduced the percentage of cells in the S (DNA synthesis)-phase of the cell cycle”.
For `CC(=O)NC1C(OC(C)=O)OC(COC(C)=O)C(F)(F)C1OC(C)=O` [Compound 16, 2-Acetamido-1,3,6-tri-O-acetyl-2,4-dideoxy-4,4-difluoro-α/β-D-xylo-hexopyranose], the “percentage of Olig2+ oligodendrocyte lineage cells that are Olig2+ PDGFRα+ OPCs” value [5] was “significant increase; also recorded: increased the proportion of oligodendrocyte precursor cells (OPCs)”.
